Ki data for 46 molecules are collected here from patent US7550469B2, “Heterocyclic amide derivatives and their use as dopamine D3 receptor ligands” (Aventis Pharmaceuticals Inc., priority 2001, dated 2009).

T1 sequence (P35462 whole entry): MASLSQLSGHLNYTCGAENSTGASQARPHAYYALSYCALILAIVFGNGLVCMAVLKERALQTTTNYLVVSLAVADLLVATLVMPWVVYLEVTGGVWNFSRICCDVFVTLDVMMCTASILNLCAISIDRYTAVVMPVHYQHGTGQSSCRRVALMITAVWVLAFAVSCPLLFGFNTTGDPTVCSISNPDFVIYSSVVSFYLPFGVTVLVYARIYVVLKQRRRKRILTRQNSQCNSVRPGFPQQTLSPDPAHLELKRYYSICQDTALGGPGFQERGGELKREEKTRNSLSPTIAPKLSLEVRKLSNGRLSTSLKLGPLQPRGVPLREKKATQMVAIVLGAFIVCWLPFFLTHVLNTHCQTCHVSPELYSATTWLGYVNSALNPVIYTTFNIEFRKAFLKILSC

The first experiment concerns the target T1, cloned human dopamine D3 receptors (Homo sapiens, UniProt P35462).
T1 construct: expressed in transfected cells; membrane homogenate
Put plainly: [N-Methyl-3H]Spiroperidol binding to cloned human dopamine D3 receptors (Protocol 1). The settings on record: D3 Ki (nM), the 25th table. An excerpt:
[N-Methyl-^3H]Spiroperidol Binding to Cloned Human Dopamine D3 Receptors
This assay measures the in vitro activity of compounds on cloned human dopamine (D3) receptors and predicts the direct dopamine-blocking properties of putative neuropsychiatric agents at human dopamine D3 receptors.
The D3 gene was isolated from a human striatal cDNA library (Stratagene). The gene was sequenced and sub-cloned into the expression vector RC/RSV (Invitrogen). CHO (Chinese Hamster Ovary) cells were stably transfected with 10 μg of the D3/RSV plasmid using the DOTAP method from Boehringer Mannheim and 72 clones that were G418 resistant were isolated. Using mRNA and binding displacement data a single high expressing clone was identified. This clone was then grown in large batches for the purpose of developing a 96 well format assay.
• 1. One plate (10 cm) with approximately 2-3 million D3 cells per plate is incubated with 1 ml of Trypsin-EDTA at room temperature for ˜2 min or until cells have lifted off plates. Four ml of Ham's F12+10% Fetal Bovine Serum+1% Penicillin/Streptomycin+G418 (400 μg/ml) medium are added to resuspend cells and 1 ml of this is added to each large plate (15 cm) containing 19 ml of the-same medium as mentioned above. • 2. The 5 large plates are incubated at 37° C.+5% CO2 for ˜3 days or until the cells are confluent. • 3. After these plates are confluent, they are split into 10 large plates. Medium is aspirated off, 2 ml of Trypsin-EDTA are added to each plate and plates are incubated at RT for 2 min or until cells have lifted off the plate. Eight ml of the F12 medium (same medium as #1 above) are added to each plate (10 ml total) to resuspend the cells and 5 ml are transferred to the 2 new plates containing 15 ml of the F12 media. • 4. The 10 large plates are incubated at 37° C.+5% CO2 for ˜2 days or until the cells are confluent. • 5. The 10 large plates are split into 60 large plates (using Trypsin-EDTA as #3 except 4 ml of F12 medium are added to resuspend cells and 1 ml is aliquoted to 6 new plates containing 19 ml of F12 medium each). • 6. Plates are incubated at […]+5% CO2 for ˜3 days or until cell are confluent. • 7. The 60 large plates are then split into 60 roller bottles (100-150 million cells/bottle). Medium is aspirated off, 2 ml of Trypsin-EDTA are added to each plate and incubated at RT for ˜2 minutes or until cells have lifted off plates. Eight ml of F12 medium are added to each plate to resuspend cells and the entire 10 ml are added to 1 roller bottle containing 90 ml of the F12 medium. • 8. The 60 roller bottles are immediately placed on their sides and transferred to the roller bottle incubator. They are incubated at 37° C.+5% CO2 for ˜3-5 days. Cells are spun at 30-40% motor speed in the Forma incubator. • 9. Medium is poured off and cells are washed 2× in PBS. • 10. Cells are then scraped off in 20 ml of PBS and the bottles are rinsed again with 5 ml of PBS to remove any remaining cells. Cells are stored on ice before membrane preparation. • 11. The yield for 60 D3 roller bottles has varied from ˜260-500 mg. • Note: All tissue culture reagents are from Gibco-BRL. C. Membrane Preparation
The cells are harvested into 250 ml centrifuge tubes with 100 volumes of cold phosphate buffered saline (PBS) and spun down (1200×G for 10 min at 4° C.). The medium is removed and 100 ml PBS are added to each centrifuge tube, cells are resuspend and spun down again. The PBS is removed and the final pellet is homogenized in an appropriate volume of 10% DMSO with a polytron on ice at a medium setting.
1. 0.5M Tris Buffer, pH 7.7 • a) 44.4 g Tris HCl 26.5 g Tris Base q.s. to 1 Liter (0.5 M Tris buffer, pH 7.7 at 37° C.) • b) make a 1:10 dilution in distilled H2O (0.05 M. Tris buffer, pH 7.7) 2. Tris Buffer Containing Physiological Salts • a) Stock buffer • NaCl 7.014 g • KCl 0.372 g • CaCl2 0.222 g • MgCl2 0.204 g • q.s. To 100 ml with 0.5 M. Tris Buffer • b) Dilute 1:10 in distilled H2O […]
With `Cc1ccc(OC(=O)NCC2CC2CN2CCC(c3noc4ccsc34)CC2)cc1` (stereo not drawn) [compound 831698], the Ki worked out at 29.4 nM.

The experiment is the same for the next values; noted with them: Table 2; read-out: D3K1.
In the case of `O=C(N[C@H](CO)CCCN1CCN(c2csc3cc(C(F)(F)F)ccc23)CC1)c1ccc2c(c1)S(=O)(=O)c1ccccc1C2=O` [compound 815709], the Ki worked out at 124 nM.
Regarding `Cc1c(C(=O)NCCC(CO)CN2CCN(c3csc4cc(C(F)(F)F)ccc34)CC2)cnn1-c1ccccc1` (stereo not drawn) [818634ES], the Ki was 305 nM.
On the same count and under the same terms, the value for `O=C(NCCCCCN1CCN(c2csc3cc(C(F)(F)F)ccc23)CC1)c1cc2ccccc2o1` [compound 826803] was 16.9 nM; that for `O=C(N[C@H](CO)CCCN1CCN(c2csc3cc(C(F)(F)F)ccc23)CC1)c1cc2ccc(Cl)cc2s1` [compound 815710] was 210 nM; that for `CN(C)c1ccccc1C(=O)NCCCCN1CCCN(c2csc3cc(F)ccc23)CC1` [compound 817269] was 4.74 nM.
As to `O=C(NCC(CO)CCN1CCN(c2csc3cc(C(F)(F)F)ccc23)CC1)c1cn[nH]c1` (stereo not drawn) [818928ES], the Ki is 158 nM.
On to `O=C(NC(CO)CCCN1CCN(c2csc3cc(C(F)(F)F)ccc23)CC1)c1ccccc1C(F)(F)F` (stereo not drawn) [compound 815688], for which the Ki stood at 190 nM.
On to `O=C(NCC(CO)CCN1CCN(c2csc3cc(C(F)(F)F)ccc23)CC1)c1ccc2ncccc2c1` (stereo not drawn) [818938ES], for which the Ki turned out to be 141 nM.

The experiment is the same for the next values; noted with them: read-out: D3K1.
Turning to `O=C(NCCCCN1CCN(c2csc3cc(C(F)(F)F)ccc23)CC1)c1cccs1` [compound 811708], the Ki was determined as 5.77 nM.
On the same count and under the same terms, the value for `O=C(N[C@H](CO)CCCN1CCN(c2csc3cc(C(F)(F)F)ccc23)CC1)c1ccc2c(c1)S(=O)(=O)c1ccccc1C2=O` [compound 815709] was 124 nM; that for `COc1ccc(C(=O)NCC2C(CN3CCN(c4csc5cc(C(F)(F)F)ccc45)CC3)C2(C)C)cc1OC` (stereo not drawn) [compound 826272] was 62 nM.
On to `CC1(C)C(CNC(=O)c2ccccc2)C1CN1CCN(c2csc3cc(C(F)(F)F)ccc23)CC1` (stereo not drawn) [compound 826275], for which the Ki stood at 92 nM.
Same read-out and setting: the value for `CCOc1ccc(C(=O)NCCCCN2CCN(c3c(Cl)sc4cc(C(F)(F)F)ccc34)CC2)cc1` [compound 815560] was 22 nM; that for `O=C(NC/C=C\CN1CCN(c2csc3cc(C(F)(F)F)ccc23)CC1)c1cccc(C(F)(F)F)c1` [compound 826346] was 170 nM.
`CC1(C)C(CNC(=O)c2cccc(F)c2)C1CN1CCN(c2csc3cc(C(F)(F)F)ccc23)CC1` (stereo not drawn) [compound 826274]: the Ki amounted to 67 nM.
Consider `O=C(N[C@H](CO)CCCN1CCN(c2csc3cc(C(F)(F)F)ccc23)CC1)c1cc2ccc(Cl)cc2s1` [compound 815710], for which the Ki is 210 nM.
On the same count and under the same terms, the value for `O=C(NCCCCN1CCN(c2csc3cc(C(F)(F)F)ccc23)CC1)c1ccc([N+](=O)[O-])cc1` [compound 815549] was 2.1 nM.
Same read-out and setting: in the case of `O=C(NC(CO)CCCN1CCN(c2csc3cc(C(F)(F)F)ccc23)CC1)c1ccccc1C(F)(F)F` (stereo not drawn) [compound 815688] it was 190 nM.

The experiment is the same for the next values; noted with them: the 13th table, unit inferred; read-out: D3Ki.
Consider `O=C(NCCCCCN1CCCN(c2csc3cc(F)ccc23)CC1)c1cnc(-c2cccnc2)s1` [S984497], for which the Ki turned out to be 49.3 nM.
As for `O=C(Cc1ccc(Cl)cc1)NCCCCN1CCCN(c2csc3cc(F)ccc23)CC1` [S982509], the Ki was 12.8 nM.
The same measure, in the same setting: in the case of `CC1=C(C(=O)NCCCCN2CCCN(c3csc4cc(F)ccc34)CC2)Cc2ccccc21` [S977827] it was 0.987 nM.
With `O=C(NCCCCCN1CCCN(c2csc3cc(F)ccc23)CC1)c1sccc1-n1cccc1` [S984499], the Ki came to 28.5 nM.
With `Cc1ccccc1C(=O)NCCCCN1CCCN(c2csc3cc(C(F)(F)F)ccc23)CC1` [S980639], the Ki was 40 nM.
Consider `CCCCCCc1ccc(C(=O)NCCCCCN2CCC(c3noc4ccsc34)CC2)cc1` [compound 816219], for which the Ki was found to be 132 nM.
Take `O=C(NCCCCN1CCCN(c2csc3cc(F)ccc23)CC1)c1ccccc1I` [S981851]: the Ki is 2.72 nM.
Same read-out and setting: in the case of `O=C(NCCCCN1CCC(c2noc3ccsc23)CC1)c1cc2ccccc2s1` [compound 815147] it was 371 nM; in that of `O=C(NCCCCN1CCCN(c2csc3cc(C(F)(F)F)ccc23)CC1)c1ccc2[nH]ccc2c1` [S980651], 54 nM.
`CSc1nsc(SC)c1C(=O)NCCCCN1CCCN(c2csc3cc(F)ccc23)CC1` [S981838]: the Ki was 6 nM.
Regarding `O=C(NCCCCN1CCCN(c2csc3cc(C(F)(F)F)ccc23)CC1)c1c[nH]c2ccccc12` [S980649], the Ki was 54 nM.
On the same count and under the same terms, the value for `O=C(NCCCCCN1CCC(c2noc3ccsc23)CC1)c1cc2ccccc2s1` [compound 816196] was 161 nM; that for `O=C(NCCCCN1CCCN(c2csc3cc(F)ccc23)CC1)c1ccc2c(c1)C(=O)c1ccccc1-2` [S982538] was 0.51 nM.

Still in this experiment, the particulars now being: the 14th table; read-out: D3 Ki.
On to `O=C(N[C@H](CO)CCCN1CCN(c2csc3cc(C(F)(F)F)ccc23)CC1)c1ccc2c(c1)S(=O)(=O)c1ccccc1C2=O` [compound 815709], for which the Ki was found to be 124 nM.
The same measure, in the same setting: in the case of `O=C(NCCCCCN1CCN(c2csc3cc(C(F)(F)F)ccc23)CC1)c1cc2ccccc2o1` [compound 826803] it was 16.9 nM; in that of `O=C(N[C@H](CO)CCCN1CCN(c2csc3cc(C(F)(F)F)ccc23)CC1)c1cc2ccc(Cl)cc2s1` [compound 815710], 210 nM; in that of `O=C(NC(CO)CCCN1CCN(c2csc3cc(C(F)(F)F)ccc23)CC1)c1ccccc1C(F)(F)F` (stereo not drawn) [compound 815688], 190 nM.

Staying with this experiment, now noted: the 15th table; read-out: D3 Ki.
As for `CCCCOc1ccc(C(=O)NCCCCN2C3CCC2CC(c2noc4ccccc24)C3)cc1` (stereo not drawn) [compound 816529], the Ki came out at 42.5 nM.
As for `O=C(NCCCCN1C2CCC1CC(c1noc3ccccc13)C2)C1CCCCC1` (stereo not drawn) [compound 816524], the Ki was determined as 357 nM.
Still for that read-out and setting: in the case of `O=C(NCCCCN1C2CCC1CC(c1noc3ccccc13)C2)c1ccccc1C(F)(F)F` (stereo not drawn) [compound 816522] it was 240 nM; in that of `O=C(NCCCCN1C2CCC1CC(c1noc3cc(F)ccc13)C2)c1ccc(C(F)(F)F)cc1` (stereo not drawn) [compound 816326], 223 nM.

The same experiment, now with this note: the 16th table; read-out: D3 Ki.
On to `CN(C)c1ccccc1C(=O)NCCCCN1CCCN(c2csc3cc(F)ccc23)CC1` [compound 817269], for which the Ki was found to be 4.74 nM.

Still in this experiment, the particulars now being: the 18th table; read-out: D3 Ki.
As to `O=C(NCc1sccc1CN1CCN(c2csc3cc(F)ccc23)CC1)c1ccc(OC(F)(F)F)cc1` [compound 826298], the Ki was determined as 59 nM.
Same read-out and setting: in the case of `Cc1nn(C)c2sc(C(=O)NCc3sccc3CN3CCN(c4csc5cc(F)ccc45)CC3)cc12` [compound 826321] it was 41.3 nM.
As for `O=C(NCc1sccc1CN1CCN(c2csc3cc(F)ccc23)CC1)c1ccncc1` [compound 826312], the Ki turned out to be 29 nM.
Same read-out and setting: the value for `Cn1c(C(=O)NCc2sccc2CN2CCN(c3csc4cc(F)ccc34)CC2)cc2ccccc21` [compound 826324] was 120 nM.

Still in this experiment, the particulars now being: the 19th table; read-out: D3 Ki.
Turning to `O=C(Nc1cccc(CN2CCN(c3csc4cc(F)ccc34)CC2)c1)c1cccs1` [compound 822159], the Ki worked out at 96.7 nM.
On the same count and under the same terms, in the case of `COc1cc(OC)cc(C(=O)Nc2cccc(CN3CCN(c4csc5cc(F)ccc45)CC3)c2)c1` [compound 822161] it was 163 nM.

Staying with this experiment, now noted: the 20th table; read-out: D3 Ki.
In the case of `COc1cc(OC)cc(C(=O)NCc2ccoc2CN2CCN(c3csc4cc(F)ccc34)CC2)c1` [compound 825837], the Ki came out at 190 nM.

Still in this experiment, the particulars now being: the 21st table; read-out: D3 Ki.
In the case of `C[C@@H]1CN(c2csc3cc(F)ccc23)C[C@H](C)N1CCCCNC(=O)c1cc2ccccc2s1` [compound 827054], the Ki was determined as 43.5 nM.
On the same count and under the same terms, in the case of `C[C@@H]1CN(c2csc3cc(C(F)(F)F)ccc23)C[C@H](C)N1CCCCNC(=O)c1c[nH]c2ccccc12` [compound 826952] it was 164 nM.
Consider `C[C@@H]1CN(c2csc3cc(F)ccc23)C[C@H](C)N1CCCCNC(=O)c1cnc2ccccc2n1` [compound 826945], for which the Ki was determined as 133 nM.
Same read-out and setting: the value for `COc1cc(OC)cc(C(=O)NCCCCN2[C@H](C)CN(c3csc4cc(C(F)(F)F)ccc34)C[C@@H]2C)c1` [compound 827039] was 378 nM.

The experiment is the same for the next values; noted with them: the 22nd table; read-out: D3 Ki.
Turning to `COc1ccccc1C(=O)NCCCCN1CCN(c2nn(C(=O)c3ccccc3OC)c3ccsc23)CC1` [compound 825145], the Ki worked out at 174 nM.

Still in this experiment, the particulars now being: the 24th table; read-out: D3 Ki.
For the molecule `CC(C)S(=O)(=O)NCC1CC1CN1CCC(c2noc3ccsc23)CC1` (stereo not drawn) [compound 831366], the Ki was found to be 113 nM.
